The results in this text go back to patent US11214556B1, “Method of treating colorectal cancer” (King Abdulaziz University, priority 2019, dated 2022).

Assay type in all cases: cell-based, human
The subject of data set [1] is HCT-116 cells. The data set is described as follows: Annexin V/propidium iodide apoptotic cell determination. As to conditions: IC50 concentration.
Method: Apoptosis was determined by staining cells with Annexin V-fluorescein isothiocyanate (FITC) and counterstaining with propidium iodide (PI) using the Annexin V-FITC/PI apoptosis detection kit (BD Biosciences, San Diego, Calif., USA) according to the manufacturer's instructions. Briefly, 4×10^6 cell/T 75 flask were exposed to the IC50 of tested compound for 24 and 48 h. The cells were collected by trypsinization and 0.5×10^6 cells were washed twice with phosphate-buffered saline (PBS) and stained with 5 μl Annexin V-FITC and 5 μl PI in 1× binding buffer (BD Biosciences, San Jose, Calif., USA) for 15 min at room temperature in the dark. Analyses were performed using FACS Calibur flow cytometer (BD Biosciences, San Jose, Calif., USA).
Data set [2] relates to HCT-116 cells. The data set can be described thus: Nuclear fragmentation by DAPI staining. Particulars: 2.85 μM (IC50), 48 h compared to 24 h. How it is done:
Several assays were performed to determine the apoptotic effect of the early lead MOS-1512 as well as the potent derivative MOS-4112 on HCT-116 cells. […] See Drutovic, D.; Chripkova, M.; Pilatova, M.; Kruzliak, P.; Perjesi, P.; Sarissky, M.; Lupi, M.; Damia, G.; Broggini, M.; Mojzis, J., Benzylidenetetralones, cyclic chalcone analogues, induce cell cycle arrest and apoptosis in HCT116 colorectal cancer cells. Tumour Biol 2014, 35 (10), 9967-75, incorporated herein by reference in its entirety.
Cells were cultured on sterile 22 mm^2 cover slips (Harvard Apparatus, MA, USA) in sterile six well plates at a density of 2×10^5 cells/well. […] The fixed and permeabilized cells nuclei were denatured with 2 N HCl (300 μl) for 10 min, washed three times more, and treated with 0.1 μg/ml 4′,6′-diamidino-2-phenylindole, dihydrochloride (DAPI) (Sigma-Aldrich, St. Louis, Mo., USA) (1:1000) in (phosphate-buffered saline-Tween 20 (PBST) for 1 hr. After staining, the cells were washed twice with PBS. The cover slips were then mounted on a glass slide with anti-fade mounting medium and viewed with an epifluorescence microscope, Leica, DM 5500 B (Leica, Buffalo Grove, Ill., USA) at a magnification of 60×, and data were captured digitally and quantified using the microscope provided software.

Data set [3] has as its system HCT-116 cells. The data set can be described thus: Cell cycle analysis by flow cytometry. Particulars: IC50 concentration, 24 h. The text has this:
The exposure of the cells to 4112 led to a significant increase in the proportion of cells in pre-G1 phase (Up to 9-fold compared to the control). Accumulation of cells in pre-G1 phase, likely as a result of degradation or fragmentation of genetic material indicates a possible role for apoptosis through compound-induced growth inhibition.
The cells were collected by trypsinization, washed with phosphate buffered saline (PBS) and fixed in ice-cold absolute alcohol. Thereafter, cells were stained using Cycletest™ Plus DNA Reagent Kit (BD Biosciences, San Jose, Calif.) according to the manufacturer's instructions. Cell cycle distribution was determined using a FACS Calibur flow cytometer (BD Biosciences, San Jose, Calif.).
A general note: Flow cytometry measures light scatter and fluorescence of single cells or particles in a stream.

In data set [4] the test system is HCT-116 cells. The data set is described as follows: SRB cytotoxicity assay, HCT-116. As to conditions: SRB assay, 72 h exposure; ± SEM. Put shortly:
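Cells in RPMI1640/10% FBS were seeded at 5000 per well and grown 24 h. They were then exposed to 0.01–100 μM compound, or 1% DMSO, for 72 h at 37 °C. After TCA fixation and SRB staining, OD was read at 510 nm and viability expressed relative to untreated controls.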
A general note: Sulforhodamine B stains cellular protein and so reports cell mass.

Another data set has as its system HT-29 cells. The data set can be described thus: SRB cytotoxicity assay, HT-29. Particulars: monolayer, 72 h exposure, ± SEM. Put shortly:
(§1)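 Cells seeded at 5000/well, grown 24 h, then exposed 72 h at 37 °C to 0.01–100 μM compound or 1% DMSO in RPMI1640 with 10% FBS. TCA-fixed, SRB-stained, OD read at 510 nm; viability expressed relative to untreated control cells.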

A further data set relates to CACO-2 cells. The data set can be described thus: SRB cytotoxicity assay, CACO-2. As to conditions: 72 h exposure, ± SEM. Put shortly:
as §1

The IC50 is the midpoint of a concentration-inhibition curve. Regarding `CCCNC(=O)/C(=C/c1c[nH]c2ccccc12)NC(=O)/C=C/c1cccs1` [Compound 4112, (Z)-3-(1H-indol-3-yl)-N-propyl-2-[(E)-3-(thien-2-yl)acrylamidolacry]amide], in the data set with HCT-116 cells [1] (after 48 hours), the “cell population in early apoptosis” value is reported as 17.5%, the “cell population in late apoptosis” value was determined as 4.1% and the viable cells is recorded as 72%. Moreover, the “change in cell viability” value in the data set on HCT-116 cells [1] (at 24 hours) is “very little change in cell viability”. Besides, the “percentage of cells with fragmented DNA and condensed nuclei” value with HCT-116 cells [2] is on record as “greatly increased”. In the data set with HCT-116 cells [3], the “increase in proportion of cells in pre-G1 phase compared to the control” value is recorded as “Up to 9 fold”. The same compound yielded a 50% inhibitory concentration (IC50) in the data set on HCT-116 cells [4] of 2.85 ± 1.5 µM. Also, in the data set on HT-29 cells, the IC50 came out at 1.65 ± 0.07 µM. This compound also displayed an IC50 in the data set with CACO-2 cells of 0.89 ± 0.04 µM.
